Legend:
Assay type in all cases: in vivo, mouse
[1] = tested on: ERK phosphorylation (pERK); experiment: pERK positive cells in dorsal striatum after i.p. RB5; settings: single dose 20 mg/kg i.p., n=5 mice/group, vs SCR at 1h
Tg2576 mice = experiment: Contextual fear conditioning in Tg2576 mice; settings: 7 months old mice, 20 mg/kg i.p. 1h before training; vs Tg2576 SCR
Hdh^Q111/+ knock-in mice = experiment: Hdh Q111/+ knock-in mice: striatal caspase-3 and pERK; settings: 20 mg/kg i.p. for 8 days; twice a day, 7 days; vs SCR

GRKKRRQRRRPPQGGGGGEPRRTEGVGPGVPGEVEMVKGQPFDV [RB5]
duration of enhancement of ERK phosphorylation in dorsal striatum [1]: up to 6 h | contextual fear memory impairment in Tg2576 mice (% of time spent freezing, 24h) (Tg2576 mice): fully rescued | caspase-3 levels in striatum of Hdh^Q111/+ mice (Hdh^Q111/+ knock-in mice): diminished caspase-3 levels
